Measurements taken from patent publication US12110286B2, “Benzimidazolone derived inhibitors of BCL6” (Cancer Research Technology Limited, priority 2017, dated 2024).

Molecular target: Trx-6×His-BCL6 (human BCL6 BTB domain covering amino-acid sequence 5-129) (Homo sapiens (Human), UniProt P41182)
Assay: HTRF in vitro assay (BCL6 / BCOR-AF633 peptide)
Assay type: binding
Conditions: for activity in the HTRF assay: result in words
Experimental: The % inhibition at each concentration was calculated by normalising FRET ratio to the appropriate high (DMSO with all reagents) and low (DMSO without BCL6) controls.

[1] = further generated data, 1 nM Trx-6×His-BCL6, 300 nM BCOR-AF633 peptide, 0.5 nM anti-6×His-Terbium cryptate
[2] = initially generated data, 10 nM Trx-6×His-BCL6, 300 nM BCOR-AF633 peptide, 1 nM anti-6×His-Terbium cryptate

Structure (SMILES) | HTRF pIC50 [1] | activity in the HTRF assay | HTRF pIC50 [2]
COc1c(Cl)ncnc1Nc1ccc2c(c1)n(C)c(=O)n2C [5-((6-chloro-5-methoxypyrimidin-4-yl)amino)-1,3-dimethyl-1,3-dihydro-2H-benzo[d]imidazol-2-one] | – | did not exhibit the desired activity | –
C[C@@H]1CN(c2ncc(Cl)c(Nc3ccc4c(c3)n(CCC(C)(C)O)c(=O)n4C)n2)C[C@H](C)O1 [Example 20j] | 6.80 | – | –
Cn1c(=O)n(CC(O)Cn2cccn2)c2cc(Nc3ccnc(Cl)c3C#N)ccc21 (stereo not shown) [Example 10f] | 5.48 | – | 5.49
CCC1(Cn2c(=O)n(C)c3ccc(Nc4nc(-n5ccc(C(F)(F)F)n5)ncc4Cl)cc32)CNC(=O)O1 (stereo not shown) [Example 20o] | 6.22 | – | –
CCN(C)c1ncc(Cl)c(Nc2ccc3c(c2)n(CCC(C)(C)O)c(=O)n3C)n1 [Example 20i] | 6.17 | – | –
COC(=O)C(C)CCn1c(=O)n(C)c2ccc(Nc3cc(C(=O)OC(C)C)nc(Cl)c3C#N)cc21 (stereo not shown) [Example 2c, Isopropyl 6-chloro-5-cyano-4-[[3-(4-methoxy-3-methyl-4-oxo-butyl)-1-methyl-2-oxo-benzimidazol-5-yl]amino]pyridine-2-carboxylate] | – | – | 6.10
COC(=O)[C@H](N)CCn1c(=O)n(C)c2ccc(Nc3ccnc(Cl)c3C#N)cc21 [Example 12, Methyl (2R)-2-amino-4-[6-[(2-chloro-3-cyano-4-pyridyl)amino]-3-methyl-2-oxo-benzimidazol-1-yl]butanoate] | 5.68 | – | 5.79
COC(=O)C(C)CCn1c(=O)n(C)c2ccc(Nc3cc(C(=O)N(C)C)nc(Cl)c3C#N)cc21 (stereo not shown) [Example 7c, Methyl 4-[6-[[2-chloro-3-cyano-6-(dimethylcarbamoyl)-4-pyridyl]amino]-3-methyl-2-oxo-benzimidazol-1-yl]-2-methyl-butanoate] | – | – | 5.57
COC(=O)C(C)Cn1c(=O)n(C)c2ccc(Nc3ccnc(Cl)c3C#N)cc21 (stereo not shown) [Example 3b, Methyl 3-[6-[(2-chloro-3-cyano-4-pyridyl)amino]-3-methyl-2-oxo-benzimidazol-1-yl]-2-methyl-propanoate] | 5.35 | – | 5.39
CN1CC(Cn2c(=O)n(C)c3ccc(Nc4nc(N5CC(C)(C)OC(C)(C)C5)ncc4Cl)cc32)(C(C)(C)O)OC1=O (stereo not shown) [Example 20b] | 6.01 | – | –
Cn1c(=O)n(CCC2(C)CO2)c2cc(Nc3ccnc(Cl)c3C#N)ccc21 (stereo not shown) [Example 32, 2-chloro-4-((1-methyl-3-(2-(2-methyloxiran-2-yl)ethyl)-2-oxo-2,3-dihydro-1H-benzo[d]imidazol-5-yl)amino)nicotinonitrile] | 5.44 | – | –
CN(C)c1ncc(Cl)c(Nc2ccc3c(c2)n(CCC(C)(C)O)c(=O)n3C)n1 [Example 15g] | 5.89 | – | –
CCC1(Cn2c(=O)n(C)c3ccc(Nc4nc(N5C[C@@H](C)O[C@@H](C)C5)ncc4Cl)cc32)CN(C)C(=O)O1 (stereo partly shown) [Example 20l] | 6.39 | – | –
COC(=O)C1CCCC1Cn1c(=O)n(C)c2ccc(Nc3ccnc(Cl)c3C#N)cc21 (stereo not shown) [Example 11, Methyl 2-[[6-[(2-chloro-3-cyano-4-pyridyl)amino]-3-methyl-2-oxo-benzimidazol-1-yl]methyl]cyclopentanecarboxylate] | 5.72 | – | 5.71
CNC(=O)c1cc(Nc2ccc3c(c2)n(CCC(C)C(=O)OC)c(=O)n3C)c(C#N)c(Cl)n1 (stereo not shown) [Example 7a, Methyl 4-[6-[[2-chloro-3-cyano-6-(methylcarbamoyl)-4-pyridyl]amino]-3-methyl-2-oxo-benzimidazol-1-yl]-2-methyl-butanoate] | 6.09 | – | 5.97
CCC(=O)CCn1c(=O)n(C)c2ccc(Nc3ccnc(Cl)c3C#N)cc21 [Example 19a, 2-chloro-4-((1-methyl-2-oxo-3-(3-oxopentyl)-2,3-dihydro-1H-benzo[d]imidazol-5-yl)amino)nicotinonitrile] | 5.83 | – | –
CCOC(=O)c1cc(Nc2ccc3c(c2)n(CC[C@@H](C)O)c(=O)n3C)n2nccc2n1 [Example 1o, Ethyl 7-[[3-[(3R)-3-hydroxybutyl]-1-methyl-2-oxo-benzimidazol-5-yl]amino]pyrazolo[1,5-a]pyrimidine-5-carboxylate] | 5.48 | – | 5.58
Cn1c(=O)n(CC2CCOC2(C)C)c2cc(Nc3ccnc(Cl)c3C#N)ccc21 (stereo not shown) [2-chloro-4-((3-((2,2-dimethyltetrahydrofuran-3-yl)methyl)-1-methyl-2-oxo-2,3-dihydro-1H-benzo[d]imidazol-5-yl)amino)nicotinonitrile] | – | did not exhibit the desired activity | –

The next lines start with the values.

HTRF pIC50 [1] | activity in the HTRF assay | HTRF pIC50 [2] | Structure (SMILES)
6.04 | – | – | Cn1c(=O)n(CCC(C)(C)O)c2cc(Nc3nc(N4C[C@H]5CCCC[C@H]5C4)ncc3Cl)ccc21 [Example 35o, 5-((5-chloro-2-((3aR,7aS)-octahydro-2H-isoindo1-2-yl)pyrimidin-4-yl)amino)-3-(3-hydroxy-3-methylbutyl)-1-methyl-1,3-dihydro-2H-benzo[d]imidazol-2-one]
6.22 | – | – | C[C@@H]1C[C@H](C)CN(C(=O)c2cc(Nc3ccc4c(c3)n(CCC(C)(C)O)c(=O)n4C)c(Cl)cn2)C1 [Example 36e, 5-((5-chloro-2-((3R,5S)-3,5-dimethylpiperidine-1-carbonyl)pyridin-4-yl)amino)-3-(3-hydroxy-3-methylbutyl)-1-methyl-1,3-dihydro-2H-benzo[d]imidazol-2-one]
5.44 | – | – | Cn1c(=O)n(CC2CCN2C(=O)OC(C)(C)C)c2cc(Nc3ccnc(Cl)c3C#N)ccc21 (stereo not shown) [Example 19d]
5.88 | – | – | Cn1c(=O)n(CCC(C)(C)O)c2cc(Nc3ccnc(Cl)c3Cl)ccc21 [Example 29b, 5-((2,3-dichloropyridin-4-yl)amino)-3-(3-hydroxy-3-methylbutyl)-1-methyl-1,3-dihydro-2H-benzo[d]imidazol-2-one]
5.88 | – | – | CN(C)C(=O)C1CCN(c2cc(Nc3ccc4c(c3)n(CCC(C)(C)O)c(=O)n4C)c(Cl)cn2)CC1 [Example 36c, 1-(5-chloro-4-((3-(3-hydroxy-3-methylbutyl)-1-methyl-2-oxo-2,3-dihydro-1H-benzo[d]imidazol-5-yl)amino)pyridin-2-yl)-N,N-dimethylpiperidine-4-carboxamide]
6.27 | – | – | CN(C)C(=O)C1CCN(c2ncc(Cl)c(Nc3ccc4c(c3)n(CCC(C)(O)CCO)c(=O)n4C)n2)CC1 (stereo not shown) [Example 15k]
5.99 | – | – | Cn1c(=O)n(CCC(C)(C)O)c2cc(Nc3nc(N4CCCC4=O)ncc3Cl)ccc21 [Example 30b, 5-((5-chloro-2-(2-oxopyrrolidin-1-yl)pyrimidin-4-yl)amino)-3-(3-hydroxy-3-methylbutyl)-1-methyl-1,3-dihydro-2H-benzo[d]imidazol-2-one]
5.47 | – | – | Cn1c(=O)n(CCC(C)(C)O)c2cc(Nc3cc(Cl)nc4ccnn34)ccc21 [Example 22h]
6.02 | – | – | Cc1cc(C)n(-c2ncc(Cl)c(Nc3ccc4c(c3)n(CCC(C)(O)CCO)c(=O)n4C)n2)n1 (stereo not shown) [Example 15e]
5.27 | – | – | CCC(C)(O)CCn1c(=O)n(C)c2ccc(Nc3nc(Cl)ncc3Cl)cc21 (stereo not shown) [Example 22g, 5-((2,5-dichloropyrimidin-4-yl)amino)-3-(3-hydroxy-3-methylpentyl)-1-methyl-1,3-dihydro-2H-benzo[d]imidazol-2-one]
